{"source": "patent US8871751B2", "about": "“Compositions and methods relating to nuclear hormone and steroid hormone receptors including inhibitors of estrogen receptor alpha-mediated gene expression and inhibition of breast cancer” (The Board of Trustees of the University of Illinois, priority 2008, dated 2014)", "key": {"[1]": {"tested_on": "BG-1 ovarian cancer cells", "assay": "BG-1 cell growth assay (MTS)", "assay_type": "cell-based", "details": "for IC50: 10 pM E2, 5 days, MTS, read-out: IC50 for inhibition of E2-dependent growth of BG-1 cells", "description": "ERα positive BG-1 ovarian cancer cells (44) were provided by Prof. K. Korach. ERα negative MDA-MB-231 human breast cancer cell lines were provided by Prof. A. Nardulli. The cells are maintained in phenol red-free MEM medium with 5% calf serum and antibiotics. 4 days before hormone induction, cells are switched to phenol red-free MEM medium containing 5% 2XCD-treated calf serum for BG-1 cells. For BG-1 cell growth assays, 250 cells in 100 μl of phenol-red-free medium were added to wells of a 96-well plate. After 24 h, the indicated concentrations of the test compounds and 10 pM E2 or ethanol vehicle were added to each well. Compounds in DMSO were diluted in medium so that the DMSO concentration was not greater than 0.5%. Cell viability assays were carried out 5-6 days later using Promega CellTiter 96®Aqueous One Solution Cell Proliferation Assay (Promega, Wis.)."}, "ERα": {"target": "T1, ERα (Homo sapiens, UniProt P03372)", "T1 sequence (P03372 1-595)": "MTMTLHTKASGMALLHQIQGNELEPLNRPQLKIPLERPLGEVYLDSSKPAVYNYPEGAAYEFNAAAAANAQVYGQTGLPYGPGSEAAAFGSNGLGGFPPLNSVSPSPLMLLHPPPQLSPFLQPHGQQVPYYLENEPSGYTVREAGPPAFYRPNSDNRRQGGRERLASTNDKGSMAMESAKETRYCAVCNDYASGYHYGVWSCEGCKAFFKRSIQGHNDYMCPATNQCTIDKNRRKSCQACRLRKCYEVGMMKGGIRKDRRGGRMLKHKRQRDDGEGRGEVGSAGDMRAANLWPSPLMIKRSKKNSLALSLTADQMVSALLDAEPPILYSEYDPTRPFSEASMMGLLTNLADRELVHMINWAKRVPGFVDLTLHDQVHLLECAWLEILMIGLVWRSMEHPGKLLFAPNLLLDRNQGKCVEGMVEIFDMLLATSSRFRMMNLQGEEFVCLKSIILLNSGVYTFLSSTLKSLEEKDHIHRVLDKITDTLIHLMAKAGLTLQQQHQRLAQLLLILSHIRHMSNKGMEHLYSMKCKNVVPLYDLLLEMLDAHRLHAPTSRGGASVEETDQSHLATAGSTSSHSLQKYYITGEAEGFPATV", "assay": "PI-9 mRNA induction in tamoxifen-resistant MCF7ERαHA cells (qRT-PCR)", "assay_type": "cell-based", "set-up": "endogenous in cells", "details": "Dox", "from_the_text": "A model for tamoxifen-resistant breast cancers that overexpress ERα is MCF7ERαHA cells, which is a tetracycline-inducible MCF-7 model in which doxycycline (Dox) induces overexpression of ERα (40,41). In contrast to MCF-7 cells, in these cells Tam and OHT are potent agonists (2,42) and OHT, which stabilizes ERα, induced proteinase inhibitor 9 (PI-9) mRNA and protein more effectively than E2 (2,43). MCF7ERαHA cells were maintained in 10% 6XCD-treated FBS (40,41). All cells were in 0.1% DMSO vehicle and contained the indicated concentrations of TPBM added at the same time as the E2 or OHT. To induce PI-9 mRNA, the cells were treated with 0.5 μg/ml doxycycline to induce ERα and ethanol vehicle, 100 pM E2 or 500 pM OHT for 24 h, mRNA was extracted and PI-9 mRNA levels were determined by quantitative RT-PCR as described (2).\nEndogenous Gene Expression. MCF-7 cells or MCF7ERαHA cells were maintained for 4 days in medium containing 5% CD calf serum (MCF-7 cells) or 10% 6×CD-FBS (MCF7ERαHA cells). In assays of TPSF inhibition of PI-9 induction, cells were plated, incubated for 24 hours in the indicated concentrations of TPSF and then maintained 4 hours with and without E2, with and without TPSF. To induce ERα, MCF7ERαHA cells were also maintained in 0.5 μg/ml Dox for 24 hours prior to addition of E2 or OHT with or without TPSF. For induction of cyclin D1, 24 hours after plating the cells, E2 with and without TPSF was added, the cells were maintained for 24 hours, RNA was extracted and mRNA levels were determined by quantitative RT-PCR as described (19, 26). Actin mRNA levels were used as the qRT-PCR internal standard. The primers and sequences used in qRT-PCR were as follows."}}, "note": "“And” between values parts separate entries of the source, which are not always exact repeats. Identical values can stand only once. Like-named read-outs stand apart in the source and are kept apart here.", "data": [{"smiles": "Cn1c(=O)c2nc(CSCc3ccccc3)[nH]c2n(C)c1=O", "note": "[Compound 95910, 8-Benzylsulfanylmethyl-1,3-dimethyl-3,7-dihydro-purine-2,6-dione]", "values": [{"measurement": "potency for inhibiting E2-ERα-dependent cell growth relative to nonspecific toxicity", "setting": "[1]", "value": "> 10", "unit": "fold"}, {"measurement": "IC50", "setting": "[1]; Homo sapiens, BG-1, 120 h", "value": 5, "unit": "µM"}, {"measurement": "effect on E2-independent growth of BG-1 cells", "setting": "[1]; no E2, 5 days", "value": "had no effect"}, {"measurement": "inhibition of OHT-ERα induction of PI-9 mRNA", "setting": "ERα; 30 μM, 500 pM OHT", "value": 48, "unit": "%"}, {"measurement": "IC50", "setting": "ERα; 100 pM E2, 24 h, read-out: IC50 for inhibition of E2-ERα induction of PI-9 mRNA", "value": "9 µM and 8.5 µM"}]}, {"smiles": "CN1CCC(C#N)c2ccccc21", "note": "(stereo not drawn) [Compound 1529]", "values": [{"measurement": "IC50", "setting": "[1]", "value": "~5", "unit": "µM"}, {"measurement": "concentration inhibiting growth of BG-1 cells in the absence of E2", "setting": "[1]; no E2, 5 days", "value": "> 5", "unit": "µM"}]}, {"smiles": "Cn1c(=S)c2[nH]c(SCCCC(=O)c3ccc(F)cc3)nc2n(C)c1=O", "note": "[TPSF, Butyrophenone, p-fluoro-4-(1,2,3,6,-tetrahydro-1,3-dimethyl-2-oxo-6-thionopurin-8-ylthio)]", "values": [{"measurement": "effect on E2-mediated induction of PI-9 mRNA", "setting": "ERα; 10 μM, 100 pM E2", "value": "blocked"}, {"measurement": "effect on OHT-ERα induction of PI-9 mRNA", "setting": "ERα; 10 μM, 500 pM OHT", "value": "blocked"}]}]}
